{
  "source": "patent US9662318B2",
  "about": "“Bitopic muscarinic agonists and antagonists and methods of synthesis and use thereof” (BARRY UNIVERSITY, INC., priority 2012, dated 2017)",
  "key": {"[1]": {"molecular_target": "T1, M1 muscarinic receptor (Homo sapiens, UniProt P11229)", "T1 sequence (P11229 1-460)": "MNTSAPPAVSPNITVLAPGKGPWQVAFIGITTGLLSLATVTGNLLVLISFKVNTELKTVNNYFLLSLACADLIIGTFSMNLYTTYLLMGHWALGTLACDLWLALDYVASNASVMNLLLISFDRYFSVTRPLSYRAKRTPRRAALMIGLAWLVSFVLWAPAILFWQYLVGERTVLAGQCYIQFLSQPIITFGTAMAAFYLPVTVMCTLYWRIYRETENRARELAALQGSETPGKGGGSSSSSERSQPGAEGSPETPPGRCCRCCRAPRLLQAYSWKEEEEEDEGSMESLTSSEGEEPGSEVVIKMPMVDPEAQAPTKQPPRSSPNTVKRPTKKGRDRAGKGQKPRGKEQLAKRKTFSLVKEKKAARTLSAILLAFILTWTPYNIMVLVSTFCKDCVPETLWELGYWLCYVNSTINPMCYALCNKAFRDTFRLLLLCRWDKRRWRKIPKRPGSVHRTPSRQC", "test": "Dissociation of [3H]NMS (full time course kinetics)", "assay_type": "binding", "settings": "[^3H]NMS dissociation", "description": "To probe the ability of JB-D4 to allosterically modulate orthosteric ligand, its effect on the rate of orthosteric radioligand dissociation has been investigated. […] Eq. 1 was fitted to the data from kinetic experiments. Data are means±SD from 3 independent experiments performed in quadruplicates. Equations: y=(100-f2)*e^(-Koff1*X)+f2*e^(-Koff2*X) (Eq. 1) where y is the percentage of radioligand binding at time x of radioligand binding at time 0, koff1 and koff2 are rate dissociation constants and f2 is the percentage of sites with koff2 rate of dissociation. […]. 2)"}, "[2]": {"molecular_target": "T2, M3 muscarinic receptor (Homo sapiens, UniProt P20309)", "T2 construct": "host or cells: Chinese hamster ovary cells", "T2 sequence (P20309 whole entry)": "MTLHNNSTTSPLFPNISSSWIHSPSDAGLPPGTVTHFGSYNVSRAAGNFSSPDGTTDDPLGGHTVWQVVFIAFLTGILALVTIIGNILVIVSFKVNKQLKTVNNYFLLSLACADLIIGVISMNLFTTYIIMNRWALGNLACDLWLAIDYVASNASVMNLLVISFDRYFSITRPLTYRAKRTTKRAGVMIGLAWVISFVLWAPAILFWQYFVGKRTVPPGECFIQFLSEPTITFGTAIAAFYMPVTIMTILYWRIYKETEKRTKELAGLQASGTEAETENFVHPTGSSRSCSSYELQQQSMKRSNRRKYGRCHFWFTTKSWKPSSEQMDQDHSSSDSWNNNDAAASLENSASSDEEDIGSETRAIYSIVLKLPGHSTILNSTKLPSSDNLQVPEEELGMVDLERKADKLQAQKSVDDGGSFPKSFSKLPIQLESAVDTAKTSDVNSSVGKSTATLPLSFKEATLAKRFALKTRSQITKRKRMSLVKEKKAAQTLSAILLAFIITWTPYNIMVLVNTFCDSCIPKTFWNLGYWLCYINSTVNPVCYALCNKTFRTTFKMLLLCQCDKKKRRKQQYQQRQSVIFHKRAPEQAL", "test": "biochemical", "assay_type": "binding", "settings": "competition with [^3H]QNB"}, "[3]": {"molecular_target": "T3, M5 muscarinic receptor (Homo sapiens, UniProt P08912)", "T3 construct": "host or cells: CHO (Chinese hamster ovary) cells, stably transfected", "T3 sequence (P08912 1-532)": "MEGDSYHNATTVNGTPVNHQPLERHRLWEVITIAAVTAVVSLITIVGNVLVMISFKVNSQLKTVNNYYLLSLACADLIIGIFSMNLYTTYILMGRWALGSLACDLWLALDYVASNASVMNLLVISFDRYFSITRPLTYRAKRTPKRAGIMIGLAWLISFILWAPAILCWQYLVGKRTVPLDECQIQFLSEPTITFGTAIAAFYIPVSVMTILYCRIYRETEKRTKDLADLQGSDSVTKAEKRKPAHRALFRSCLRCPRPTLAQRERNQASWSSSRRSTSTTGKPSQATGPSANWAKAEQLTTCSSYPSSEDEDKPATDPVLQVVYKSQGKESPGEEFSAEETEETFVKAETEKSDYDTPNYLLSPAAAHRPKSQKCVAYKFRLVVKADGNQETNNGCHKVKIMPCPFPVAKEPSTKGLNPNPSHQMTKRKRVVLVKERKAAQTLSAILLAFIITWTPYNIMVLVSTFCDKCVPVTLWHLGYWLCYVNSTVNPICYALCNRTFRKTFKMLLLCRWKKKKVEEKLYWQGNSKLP", "test": "biochemical", "assay_type": "binding", "settings": "competition with [^3H]QNB"}, "[4]": {"molecular_target": "T1, M1 muscarinic receptor", "test": "Accumulation of inositol phosphates in CHO cells", "assay_type": "cell-based", "settings": "ligand 0.1 mM, no carbachol", "protocol": "(§1) Chinese hamster ovary cells stably transfected with the genes of human variants of muscarinic receptors were purchased from Missouri S&T cDNA Resource Center (Rolla, Mo., USA). […] Cells were grown to confluency in 75 cm^2 flasks in Dulbecco's modified Eagle's medium supplemented with 10% fetal bovine serum and 2 million of cells were subcultured to 100 mm Petri dishes. Medium was supplemented with 5 mM butyrate for the last 24 hours of cultivation to increase receptor expression.\n(§2) Inositolphosphates formation was determined in cells pre-labeled overnight by 0.5 μM [^3H]myo-inositol in 0.3 mL of DMEM (3 μCi/ml) at 37° C. […] Incubation was stopped by removal of incubation buffer and addition 0.2 mL 20% trichloracetic acid (TCA). After 1 h incubation at 4° C., 100 μL, of TCA extracts were taken for measurement. Rest of the TCA was removed, and TCA precipitates were washed with 200 μL TCA and dissolved in 200 μL of 1 M NaOH. After 1 h incubation at 4° C., 100 μL, of NaOH lysates were taken for measurement. Radioactivity in TCA extracts and NaOH lysates were determined by liquid scintillation counting. The rate of inositolphosphates accumulation was calculated as a percentage of the soluble (released) inositolphosphates from the total incorporated radioactivity (sum of radioactivity in NaOH lysates and TCA extracts).\n(§3) EC50 values are expressed as negative logarithms and EMAX values as folds over basal, Table 7."}, "[5]": {"molecular_target": "T3, M5 muscarinic receptor", "test": "Accumulation of inositol phosphates in CHO cells", "assay_type": "cell-based", "settings": "M5; ligand 0.1 mM; no carbachol", "protocol": "as §1, §2, §3"}},
  "note": "Like-named read-outs stand apart in the source and are kept apart here.",
  "data": [
    {"smiles": "CCCCOc1ccc(C(=O)OCC[N+]2(C)CCCCC2)cc1.[I-]", "note": "[JB-D4, 2-(N-piperidineethyl) p-butoxybenzoate N-methyl iodide]", "values": [
      {"measurement": "koff1", "setting": "[1]; +0.1 mM JB-D4, M1", "result": "0.000253 ± 1.4e-05", "unit": "s⁻¹"},
      {"measurement": "koff2", "setting": "[1]; +0.1 mM JB-D4, M1", "result": "0.000319 ± 1.7e-05", "unit": "s⁻¹"},
      {"measurement": "f2", "setting": "[1]; +0.1 mM JB-D4, M1, percentage of sites with koff2", "result": "12 ± 1", "unit": "%"},
      {"measurement": "koff1", "setting": "[1]; +1 mM JB-D4, M1", "result": "0.000169 ± 1.7e-05", "unit": "s⁻¹"},
      {"measurement": "Ki", "setting": "[2]; M3", "result": 4.34, "unit": "µM"},
      {"measurement": "IC50", "setting": "[2]; M3, average of 3, read-out: avg IC50", "result": 29.4, "unit": "µM"},
      {"measurement": "IC50", "setting": "[2]; M3, experiment 1, read-out: IC50—1", "result": 39.5, "unit": "µM"},
      {"measurement": "IC50", "setting": "[2]; M3, experiment 2, read-out: IC50—2", "result": 20.6, "unit": "µM"},
      {"measurement": "IC50", "setting": "[2]; M3, experiment 3, read-out: IC50—3", "result": 28.2, "unit": "µM"},
      {"measurement": "Ki", "setting": "[3]; M5", "result": 0.827, "unit": "µM"},
      {"measurement": "IC50", "setting": "[3]; M5, average of 3, read-out: avg IC50", "result": 6.61, "unit": "µM"},
      {"measurement": "IC50", "setting": "[3]; M5, experiment 1, read-out: IC50—1", "result": 5.73, "unit": "µM"},
      {"measurement": "IC50", "setting": "[3]; M5, experiment 2, read-out: IC50—2", "result": 6.76, "unit": "µM"},
      {"measurement": "IC50", "setting": "[3]; M5, experiment 3, read-out: IC50—3", "result": 7.34, "unit": "µM"},
      {"measurement": "Effect of ligands on basal activity (accumulation of inositol phosphates as percent of accumulation in the absence of the ligand)", "setting": "[4]", "result": "97 ± 2", "unit": "%"},
      {"measurement": "Effect of ligands on basal activity (accumulation of inositol phosphates as percent of accumulation in the absence of the ligand)", "setting": "[5]", "result": "98 ± 3", "unit": "%"}
    ]}
  ]
}
